Key:
[1] = tested on: Puccinia recondita f. Sp. Tritici; assay: Puccinia recondita f. sp. tritici / wheat / leaf disc curative (brown rust); assay type: in vivo; conditions: foliar, 144 h, 200 ppm in the applied formulation, wheat leaf segments cv. Kanzler, applied 1 day after inoculation, assessed 6 to 8 days after application, vs untreated, read-out: disease control
Experimental: (§1) Leaf disks or leaf segments of various plant species are cut from plants grown in a greenhouse. The cut leaf disks or segments are placed in multiwell plates (24-well format) onto water agar. The leaf disks are sprayed with a test solution before (preventative) or after (curative) inoculation. Compounds to be tested are prepared as DMSO solutions (max. 10 mg/ml) which are diluted to the appropriate concentration with 0.025% Tween20 just before spraying. The inoculated leaf disks or segments are incubated under defined conditions (temperature, relative humidity, light, etc.) according to the respective test system. A single evaluation of disease level is carried out 3 to 14 days after inoculation, depending on the pathosystem. Percent disease control relative to the untreated check leaf disks or segments is then calculated.
Wheat leaf segments cv. Kanzler are placed on agar in multiwell plates (24-well format). The leaf segments are then inoculated with a spore suspension of the fungus. Plates were stored in darkness at 19° C. and 75% relative humidity. The formulated test compound diluted in water was applied 1 day after inoculation. The leaf segments were incubated at 19° C. and 75% relative humidity under a light regime of 12 hours light/12 hours darkness in a climate cabinet and the activity of a compound was assessed as percent disease control compared to untreated when an appropriate level of disease damage appears in untreated check leaf segments (6 to 8 days after application).
(§2) The following compounds at 200 ppm in the applied formulation give at least 80% disease control in this test when compared to untreated control leaf disks under the same conditions, which show extensive disease development.

[2] = tested on: Glomerella Lagenarium (Colletotrichum Lagenarium); assay: Glomerella lagenarium (Colletotrichum lagenarium) liquid culture / cucumber / preventative (anthracnose); assay type: cell-based; conditions: Colletotrichum orbiculare; 20 ppm in the applied formulation; liquid culture in PDB, 24° C., inhibition of growth measured photometrically 3 to 4 days after application, vs untreated; read-out: disease control
Experimental: Mycelia fragments or conidia suspensions of a fungus prepared either freshly from liquid cultures of the fungus or from cryogenic storage, are directly mixed into nutrient broth. DMSO solutions of the test compound (max. 10 mg/ml) are diluted with 0.025% Tween20 by a factor of 50 and 10 μl of this solution is pipetted into a microtiter plate (96-well format). The nutrient broth containing the fungal spores/mycelia fragments is then added to give an end concentration of the tested compound. The test plates are incubated in the dark at 24° C. and 96% relative humidity. The inhibition of fungal growth is determined photometrically after 2 to 7 days, depending on the pathosystem, and percent antifungal activity relative to the untreated check is calculated.
Conidia of the fungus from cryogenic storage are directly mixed into nutrient broth (PDB—potato dextrose broth). After placing a (DMSO) solution of test compound into a microtiter plate (96-well format), the nutrient broth containing the fungal spores is added.
The following compounds at 20 ppm in the applied formulation give at least 80% disease control in this test when compared to untreated control under the same conditions, which show extensive disease development.

[3] = tested on: Puccinia recondita f. Sp. Tritici; assay: Puccinia recondita f. sp. tritici / wheat / leaf disc preventative (brown rust); assay type: in vivo; conditions: foliar, 168 h, 200 ppm in the applied formulation, wheat leaf segments cv. Kanzler, preventative, inoculated 1 day after application, assessed 7 to 9 days after application, vs untreated, read-out: disease control
Experimental: as §1
Wheat leaf segments cv. Kanzler were placed on agar in multiwell plates (24-well format) and sprayed with the formulated test compound diluted in water. The leaf disks were inoculated with a spore suspension of the fungus 1 day after application. The inoculated leaf segments were incubated at 19° C. and 75% relative humidity (rh) under a light regime of 12 hours light/12 hours darkness in a climate cabinet and the activity of a compound was assessed as percent disease control compared to untreated when an appropriate level of disease damage appears in untreated check leaf segments (7 to 9 days after application).
as §2

Structure (SMILES) | pest or weed control at 200 ppm [1] [%] | inhibition of growth at 20 ppm [2] [%] | pest or weed control at 200 ppm [3] [%]
FC(F)(F)c1nc(-c2ccc(Cn3ncnc3C(F)(F)F)cc2)no1 [Compound 1.38, 5-(trifluoromethyl)-3-[4-[[5-(trifluoromethyl)-1,2,4-triazol-1-yl]methyl]phenyl]-1,2,4-oxadiazole] | ≥ 80 | ≥ 80 | –
Fc1ccc2ccn(Cc3ccc(-c4noc(C(F)(F)F)n4)cc3)c2c1 [Compound 1.54, 3-[4-[(6-fluoroindol-1-yl)methyl]phenyl]-5-(trifluoromethyl)-1,2,4-oxadiazole] | ≥ 80 | ≥ 80 | –
O=Cc1nccn1Cc1ccc(-c2noc(C(F)(F)F)n2)cc1 [Compound 1.71, 1-[[4-[5-(trifluoromethyl)-1,2,4-oxadiazol-3-yl]phenyl]methyl]imidazole-2-carbaldehyde] | ≥ 80 | – | –
FC(F)(F)c1nc(-c2ccc(Cn3cc(Br)cn3)cc2)no1 [Compound 1.77, 3-[4-[(4-bromopyrazol-1-yl)methyl]phenyl]-5-(trifluoromethyl)-1,2,4-oxadiazole] | ≥ 80 | ≥ 80 | –
Cc1cn(Cc2ccc(-c3noc(C(F)(F)F)n3)cc2)c(C)n1 [Compound 1.78, 3-[4-[(2,4-dimethylimidazol-1-yl)methyl]phenyl]-5-(trifluoromethyl)-1,2,4-oxadiazole] | ≥ 80 | – | –
Cc1cn(Cc2ccc(-c3noc(C(F)(F)F)n3)cc2Cl)cn1 [Compound 1.109, 3-[3-chloro-4-[(4-methylimidazol-1-yl)methyl]phenyl]-5-(trifluoromethyl)-1,2,4-oxadiazole] | – | ≥ 80 | ≥ 80
FC(F)(F)c1nc(-c2ccc(Cn3ccnc3)c(Cl)c2)no1 [Compound 1.112, 3-[3-chloro-4-(imidazol-1-ylmethyl)phenyl]-5-(trifluoromethyl)-1,2,4-oxadiazole] | – | ≥ 80 | ≥ 80
COC(=O)c1ncn(Cc2ccc(-c3noc(C(F)(F)F)n3)cc2F)n1 [Compound 1.122, methyl 1-[[2-fluoro-4-[5-(trifluoromethyl)-1,2,4-oxadiazol-3-yl]phenyl]methyl]-1,2,4-triazole-3-carboxylate] | – | ≥ 80 | ≥ 80
Fc1cc(-c2noc(C(F)(F)F)n2)ccc1Cn1cnc2ccccc21 [Compound 1.126, 3-[4-(benzimidazol-1-ylmethyl)-3-fluoro-phenyl]-5-(trifluoromethyl)-1,2,4-oxadiazole] | – | ≥ 80 | ≥ 80
Cc1cn(Cc2ccc(-c3noc(C(F)(F)F)n3)cn2)c(C)n1 [Compound 1.134, 3-[6-[(2,4-dimethylimidazol-1-yl)methyl]-3-pyridyl]-5-(trifluoromethyl)-1,2,4-oxadiazole] | ≥ 80 | – | –
FC(F)(F)c1nc(-c2ccc(Cn3cncn3)nc2)no1 [Compound 1.143, 3-[6-(1,2,4-triazol-1-ylmethyl)-3-pyridyl]-5-(trifluoromethyl)-1,2,4-oxadiazole] | ≥ 80 | ≥ 80 | –
O=C(NCC1CC1)c1cnn(Cc2ccc(-c3noc(C(F)(F)F)n3)cc2)c1 [Compound 1.249, N-(cyclopropylmethyl)-1-[[4-[5-(trifluoromethyl)-1,2,4-oxadiazol-3-yl]phenyl]methyl]pyrazole-4-carboxamide] | – | ≥ 80 | ≥ 80
CNC(=O)c1cn(Cc2ccc(-c3noc(C(F)(F)F)n3)cc2)nn1 [Compound 1.272, N-methyl-1-[[4-[5-(trifluoromethyl)-1,2,4-oxadiazol-3-yl]phenyl]methyl]triazole-4-carboxamide] | ≥ 80 | – | –
CON=C1CCN(Cc2ccc(-c3noc(C(F)(F)F)n3)cc2)CC1 [Compound 1.293, N-methoxy-1-[[4-[5-(trifluoromethyl)-1,2,4-oxadiazol-3-yl]phenyl]methyl]piperidin-4-imine] | ≥ 80 | – | –

— US10798941B2, “Microbiocidal oxadiazole derivatives” (SYNGENTA PARTICIPATIONS AG, priority 2016, dated 2020)
